In ChEMBL document CHEMBL1153501, “3,4-Disubstituted benzofuran P1' MMP-13 inhibitors: optimization of selectivity and reduction of protein binding” (Bioorg Med Chem Lett, 2009):

Tests used:
[1] = Selectivity ratio of IC50 for MMP2 to IC50 for MMP13
[2] = target: albumin (Oryctolagus cuniculus, UniProt P49065); test: Protein binding in rabbit serum albumin by equilibrium dialysis assay; assay type: ADME; details: read-out: PB
[3] = target: Matrix metalloproteinase-9 (Homo sapiens, UniProt P14780); test: Inhibition of MMP9
Sequence of Matrix metalloproteinase-9 (P14780 whole entry): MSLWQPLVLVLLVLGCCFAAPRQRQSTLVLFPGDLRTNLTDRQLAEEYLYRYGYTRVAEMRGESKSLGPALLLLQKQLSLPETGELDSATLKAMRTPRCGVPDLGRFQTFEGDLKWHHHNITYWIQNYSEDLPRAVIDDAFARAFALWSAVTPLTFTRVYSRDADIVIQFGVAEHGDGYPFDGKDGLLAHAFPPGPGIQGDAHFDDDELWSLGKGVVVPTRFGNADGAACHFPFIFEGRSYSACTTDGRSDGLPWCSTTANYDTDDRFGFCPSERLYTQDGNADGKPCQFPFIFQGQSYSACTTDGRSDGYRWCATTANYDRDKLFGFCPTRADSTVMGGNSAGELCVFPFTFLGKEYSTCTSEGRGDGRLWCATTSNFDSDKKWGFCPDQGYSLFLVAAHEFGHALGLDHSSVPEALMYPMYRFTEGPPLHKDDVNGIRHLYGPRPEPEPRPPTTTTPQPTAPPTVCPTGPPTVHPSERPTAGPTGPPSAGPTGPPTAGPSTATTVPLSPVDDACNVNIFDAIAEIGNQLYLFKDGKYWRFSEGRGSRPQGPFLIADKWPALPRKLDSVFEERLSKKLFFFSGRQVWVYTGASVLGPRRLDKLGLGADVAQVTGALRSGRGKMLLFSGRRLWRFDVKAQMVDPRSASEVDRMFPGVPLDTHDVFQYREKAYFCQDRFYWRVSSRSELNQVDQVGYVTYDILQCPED

[4] = target: Collagenase 3 (Bos taurus) (UniProt O77656); test: Inhibition of IL1-stimulated MMP13-mediated bovine articular cartilage collagen degradation assessed as hydroxyproline content at 1 uM after 17 days
[5] = target: Collagenase 3 (Bos taurus) (UniProt O77656); test: Inhibition of IL1-stimulated MMP13-mediated bovine articular cartilage collagen degradation assessed as hydroxyproline content at 0.1 uM after 17 days
[6] = target: Collagenase 3 (Bos taurus) (UniProt O77656); test: Inhibition of IL1-stimulated MMP13-mediated bovine articular cartilage collagen degradation assessed as hydroxyproline content at 0.01 uM after 17 days
[7] = target: Collagenase 3 (Homo sapiens, UniProt P45452); test: Inhibition of MMP13
[8] = target: 72 kDa type IV collagenase (Homo sapiens, UniProt P08253); test: Inhibition of MMP2
Sequence of 72 kDa type IV collagenase (P08253 whole entry): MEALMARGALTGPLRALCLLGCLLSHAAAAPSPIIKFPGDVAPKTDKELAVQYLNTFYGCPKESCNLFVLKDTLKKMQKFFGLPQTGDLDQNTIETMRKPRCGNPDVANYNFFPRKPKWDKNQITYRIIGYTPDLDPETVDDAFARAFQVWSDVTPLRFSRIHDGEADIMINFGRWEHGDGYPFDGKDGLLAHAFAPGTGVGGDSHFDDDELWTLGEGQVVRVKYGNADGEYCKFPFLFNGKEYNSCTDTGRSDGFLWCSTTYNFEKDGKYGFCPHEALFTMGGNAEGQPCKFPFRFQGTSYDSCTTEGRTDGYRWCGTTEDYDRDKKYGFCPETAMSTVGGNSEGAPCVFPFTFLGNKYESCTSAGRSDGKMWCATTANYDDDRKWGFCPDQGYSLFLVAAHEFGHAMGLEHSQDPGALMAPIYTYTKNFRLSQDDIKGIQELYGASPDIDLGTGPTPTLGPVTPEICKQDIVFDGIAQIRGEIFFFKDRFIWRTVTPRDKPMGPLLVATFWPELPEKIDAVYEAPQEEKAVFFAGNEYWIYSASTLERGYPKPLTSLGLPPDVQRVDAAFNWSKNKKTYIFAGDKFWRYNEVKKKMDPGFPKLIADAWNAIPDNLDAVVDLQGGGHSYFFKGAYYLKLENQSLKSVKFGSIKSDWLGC

[9] = target: Interstitial collagenase (Homo sapiens, UniProt P03956); test: Inhibition of MMP1
Sequence of Interstitial collagenase (P03956 whole entry, looked up): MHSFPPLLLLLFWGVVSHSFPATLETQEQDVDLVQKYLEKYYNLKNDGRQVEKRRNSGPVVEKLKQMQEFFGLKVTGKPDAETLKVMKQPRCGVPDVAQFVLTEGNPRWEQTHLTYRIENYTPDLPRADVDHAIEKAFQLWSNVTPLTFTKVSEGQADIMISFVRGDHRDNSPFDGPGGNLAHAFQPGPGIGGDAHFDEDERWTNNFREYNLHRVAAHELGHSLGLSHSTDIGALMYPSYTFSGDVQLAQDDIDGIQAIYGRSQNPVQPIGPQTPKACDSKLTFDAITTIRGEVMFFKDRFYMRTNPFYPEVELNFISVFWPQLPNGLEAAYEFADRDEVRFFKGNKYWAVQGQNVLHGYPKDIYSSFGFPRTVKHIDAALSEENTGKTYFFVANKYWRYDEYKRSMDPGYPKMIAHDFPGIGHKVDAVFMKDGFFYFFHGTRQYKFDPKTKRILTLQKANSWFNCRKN

[10] = target: Matrix metalloproteinase-14 (Homo sapiens, UniProt P50281); test: Inhibition of MMP14
[11] = target: T1, A disintegrin and metalloproteinase with thrombospondin motifs 4 (Homo sapiens, UniProt O75173); test: Inhibition of aggrecanase-1
T1 sequence (O75173 whole entry): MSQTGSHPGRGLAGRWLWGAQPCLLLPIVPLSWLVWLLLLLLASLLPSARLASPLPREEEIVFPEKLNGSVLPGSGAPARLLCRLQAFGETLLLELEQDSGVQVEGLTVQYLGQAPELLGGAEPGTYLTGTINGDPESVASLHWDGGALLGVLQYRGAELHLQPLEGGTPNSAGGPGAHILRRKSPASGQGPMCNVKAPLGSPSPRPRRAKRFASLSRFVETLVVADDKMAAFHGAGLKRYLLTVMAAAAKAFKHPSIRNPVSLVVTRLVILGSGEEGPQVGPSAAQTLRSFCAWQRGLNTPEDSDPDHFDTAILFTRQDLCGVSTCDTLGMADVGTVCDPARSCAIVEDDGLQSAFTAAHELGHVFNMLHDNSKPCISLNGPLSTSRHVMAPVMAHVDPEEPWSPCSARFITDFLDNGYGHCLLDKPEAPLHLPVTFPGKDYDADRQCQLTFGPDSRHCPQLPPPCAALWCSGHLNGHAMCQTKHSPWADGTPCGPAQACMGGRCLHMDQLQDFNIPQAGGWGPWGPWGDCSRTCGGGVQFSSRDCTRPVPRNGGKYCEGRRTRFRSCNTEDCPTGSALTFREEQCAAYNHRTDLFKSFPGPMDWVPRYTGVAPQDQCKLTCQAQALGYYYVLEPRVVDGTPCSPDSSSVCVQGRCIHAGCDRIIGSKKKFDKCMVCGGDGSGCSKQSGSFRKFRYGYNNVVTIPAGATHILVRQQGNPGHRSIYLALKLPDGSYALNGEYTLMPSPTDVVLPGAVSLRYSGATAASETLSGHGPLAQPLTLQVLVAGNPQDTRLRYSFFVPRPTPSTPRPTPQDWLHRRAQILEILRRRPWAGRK

Sequence of albumin (P49065 whole entry): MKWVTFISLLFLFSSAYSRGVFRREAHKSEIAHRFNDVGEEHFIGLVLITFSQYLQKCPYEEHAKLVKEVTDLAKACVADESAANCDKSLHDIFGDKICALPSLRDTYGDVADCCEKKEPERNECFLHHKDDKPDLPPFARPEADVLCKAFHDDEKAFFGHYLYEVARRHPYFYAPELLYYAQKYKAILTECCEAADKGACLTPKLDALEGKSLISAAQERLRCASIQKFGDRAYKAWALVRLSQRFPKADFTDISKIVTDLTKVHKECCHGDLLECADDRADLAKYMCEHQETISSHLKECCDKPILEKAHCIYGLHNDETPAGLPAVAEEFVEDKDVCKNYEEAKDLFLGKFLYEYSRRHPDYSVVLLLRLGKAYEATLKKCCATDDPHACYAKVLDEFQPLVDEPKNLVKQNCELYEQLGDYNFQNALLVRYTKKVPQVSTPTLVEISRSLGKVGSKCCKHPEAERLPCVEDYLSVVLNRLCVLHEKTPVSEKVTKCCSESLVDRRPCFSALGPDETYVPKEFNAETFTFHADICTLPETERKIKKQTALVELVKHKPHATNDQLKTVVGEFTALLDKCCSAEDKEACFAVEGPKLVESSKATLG

Compound	Ratio IC50 [1]	also measured
COc1c(Br)ccc2oc(C(=O)Nc3ccc(-c4ccc(S(=O)(=O)N[C@H](C(=O)O)C(C)C)cc4)cc3)c(C)c12	739	fraction unbound [2]: < 0.01
C#Cc1cccc2oc(C(=O)Nc3ccc(-c4ccc(S(=O)(=O)N[C@H](C(=O)O)C(C)C)cc4)cc3)c(C)c12	98	–
COC(=O)C(C)(C)Oc1cccc2oc(C(=O)Nc3ccc(-c4ccc(S(=O)(=O)N[C@H](C(=O)O)C(C)C)cc4)cc3)c(C)c12	248	–
COc1cccc2oc(C(=O)Nc3ccc(-c4ccc(S(=O)(=O)N[C@H](C(=O)O)C(C)C)cc4)cc3)c(C)c12	110	–
CC#Cc1cccc2oc(C(=O)Nc3ccc(-c4ccc(S(=O)(=O)N[C@H](C(=O)O)C(C)C)cc4)cc3)c(C)c12	1580	–
COCCCc1cccc2oc(C(=O)Nc3ccc(-c4ccc(S(=O)(=O)N[C@H](C(=O)O)C(C)C)cc4)cc3)c(C)c12	364	–
CCOc1cccc2oc(C(=O)Nc3ccc(-c4ccc(S(=O)(=O)N[C@H](C(=O)O)C(C)C)cc4)cc3)c(C)c12	485	–
Cc1c(C(=O)Nc2ccc(-c3ccc(S(=O)(=O)N[C@H](C(=O)O)C(C)C)cc3)nc2)oc2cccc(NS(C)(=O)=O)c12	188	IC50 [7]: 40 nM; IC50 [8]: 7.5 µM
Cc1c(C(=O)Nc2ccc(-c3ccc(S(=O)(=O)N[C@H](C(=O)O)C(C)C)cc3)cc2)oc2cccc(-c3ccoc3)c12	322	–
Cc1c(C(=O)Nc2ccc(-c3ccc(S(=O)(=O)N[C@H](C(=O)O)C(C)C)cc3)cc2)oc2cccc(CCCO)c12	621	–
Cc1c(C(=O)Nc2ccc(-c3ccc(S(=O)(=O)N[C@H](C(=O)O)C(C)C)cc3)cc2)oc2cccc(Oc3ccccc3)c12	263	–
Cc1c(C(=O)Nc2ccc(-c3ccc(S(=O)(=O)N[C@H](C(=O)O)C(C)C)cc3)cc2)oc2cccc(N)c12	75	–
Cc1c(C(=O)Nc2ccc(-c3ccc(S(=O)(=O)N[C@H](C(=O)O)C(C)C)cc3)cc2)oc2cccc(NS(C)(=O)=O)c12	165	IC50 [7]: 13 nM; IC50 [8]: 2.15 µM; IC50 [3]: > 10 µM; IC50 [9]: 12 µM; IC50 [10]: 11.2 µM; IC50 [11]: 2200 nM; inhibition [4]: 96%; inhibition [5]: 69%; inhibition [6]: 51%
CC(=O)Nc1cccc2oc(C(=O)Nc3ccc(-c4ccc(S(=O)(=O)N[C@H](C(=O)O)C(C)C)cc4)cc3)c(C)c12	152	–
Cc1c(C(=O)Nc2ccc(-c3ccc(S(=O)(=O)N[C@H](C(=O)O)C(C)C)cc3)cc2)oc2cccc(-c3ccccc3)c12	243	–

The next lines start with results.

Ratio IC50 [1]	Compound	also measured
51	Cc1c(C(=O)Nc2ccc(-c3ccc(S(=O)(=O)N[C@H](C(=O)O)C(C)C)cc3)cc2)oc2cccc(N3CCOCC3)c12	–
108	CNc1cccc2oc(C(=O)Nc3ccc(-c4ccc(S(=O)(=O)N[C@H](C(=O)O)C(C)C)cc4)cc3)c(C)c12	–
786	Cc1c(C(=O)Nc2ccc(-c3ccc(S(=O)(=O)N[C@H](C(=O)O)C(C)C)cc3)cc2)oc2cccc(N(C)C)c12	–
63	Cc1c(C(=O)Nc2ccc(-c3ccc(S(=O)(=O)N[C@H](C(=O)O)C(C)C)cc3)cc2)oc2cccc(O)c12	–
157	Cc1c(C(=O)Nc2ccc(-c3ccc(S(=O)(=O)N[C@H](C(=O)O)C(C)C)cc3)cc2)oc2cccc(C#N)c12	IC50 [3]: > 10 µM; inhibition [4]: 100%; inhibition [5]: 87%; inhibition [6]: 23%
287	Cc1cccc2oc(C(=O)Nc3ccc(-c4ccc(S(=O)(=O)N[C@H](C(=O)O)C(C)C)cc4)cc3)c(C)c12	–
613	CCc1cccc2oc(C(=O)Nc3ccc(-c4ccc(S(=O)(=O)N[C@H](C(=O)O)C(C)C)cc4)cc3)c(C)c12	–
